According to publication PMC3914206:

Columns and labels:
Assay type in all cases: binding
Parameters in all cases: KINOMEscan: ABL1(F317L)-phosphorylated / KINOMEscan: ABL1(H396P)-nonphosphorylated / KINOMEscan: ABL1(H396P)-phosphorylated / KINOMEscan: ABL1(M351T)-phosphorylated / KINOMEscan: ABL1(T315I)-phosphorylated / KINOMEscan: ABL1-nonphosphorylated / KINOMEscan: ABL1-phosphorylated / KINOMEscan: ACVR2A / KINOMEscan: ACVR2B / KINOMEscan: ADCK3 / KINOMEscan: ADCK4 / KINOMEscan: AKT1 / KINOMEscan: AKT3 / KINOMEscan: ALK / KINOMEscan: ARK5 / KINOMEscan: AURKA / KINOMEscan: AURKC / KINOMEscan: BIKE / KINOMEscan: BMPR1A / KINOMEscan: BMPR1B / KINOMEscan: BMX / KINOMEscan: BRK / KINOMEscan: BRSK1 / KINOMEscan: BRSK2 / KINOMEscan: CAMK1 / KINOMEscan: CAMK1D / KINOMEscan: CAMK1G / KINOMEscan: CAMK2A / KINOMEscan: CAMK2B / KINOMEscan: AAK1 / KINOMEscan: CAMK2D / KINOMEscan: CAMK2G / KINOMEscan: ABL1(F317I)-nonphosphorylated / KINOMEscan: ABL1(F317I)-phosphorylated / KINOMEscan: ABL1(F317L)-nonphosphorylated: unit: % Ctrl
Details in all cases: Compound Concentration 10 µM
panel of 442 kinases [1] = molecular target: T1, panel of 442 kinases (Homo sapiens, UniProt P00519, M351T)
T1 construct: purchased KINOMEscan
Excerpt: (§1) We assessed the selectivity of members of this scaffold using the KINOMEscan methodology across a near comprehensive panel of 442 kinases [[18,27]].

panel of 442 kinases [2] = molecular target: T2, panel of 442 kinases (Homo sapiens, UniProt P36894)
T2 construct: purchased KINOMEscan
T2 sequence (P36894 24-532): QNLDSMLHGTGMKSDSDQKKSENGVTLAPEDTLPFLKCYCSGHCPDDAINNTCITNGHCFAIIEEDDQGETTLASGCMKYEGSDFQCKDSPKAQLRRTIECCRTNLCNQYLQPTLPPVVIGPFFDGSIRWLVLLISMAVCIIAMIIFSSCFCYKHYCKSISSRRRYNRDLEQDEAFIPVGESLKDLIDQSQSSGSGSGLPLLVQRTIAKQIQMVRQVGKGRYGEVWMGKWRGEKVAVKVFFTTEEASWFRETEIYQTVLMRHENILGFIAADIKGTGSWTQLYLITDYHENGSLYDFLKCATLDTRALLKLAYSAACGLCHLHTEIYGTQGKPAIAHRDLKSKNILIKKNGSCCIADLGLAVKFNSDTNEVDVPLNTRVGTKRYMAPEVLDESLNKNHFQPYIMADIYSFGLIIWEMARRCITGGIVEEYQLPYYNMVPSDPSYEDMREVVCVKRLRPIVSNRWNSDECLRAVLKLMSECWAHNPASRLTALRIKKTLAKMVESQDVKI
Excerpt: as §1

panel of 442 kinases [3] = molecular target: T3, panel of 442 kinases (Homo sapiens, UniProt Q9HBH9)
T3 construct: purchased KINOMEscan
T3 sequence (Q9HBH9 whole entry): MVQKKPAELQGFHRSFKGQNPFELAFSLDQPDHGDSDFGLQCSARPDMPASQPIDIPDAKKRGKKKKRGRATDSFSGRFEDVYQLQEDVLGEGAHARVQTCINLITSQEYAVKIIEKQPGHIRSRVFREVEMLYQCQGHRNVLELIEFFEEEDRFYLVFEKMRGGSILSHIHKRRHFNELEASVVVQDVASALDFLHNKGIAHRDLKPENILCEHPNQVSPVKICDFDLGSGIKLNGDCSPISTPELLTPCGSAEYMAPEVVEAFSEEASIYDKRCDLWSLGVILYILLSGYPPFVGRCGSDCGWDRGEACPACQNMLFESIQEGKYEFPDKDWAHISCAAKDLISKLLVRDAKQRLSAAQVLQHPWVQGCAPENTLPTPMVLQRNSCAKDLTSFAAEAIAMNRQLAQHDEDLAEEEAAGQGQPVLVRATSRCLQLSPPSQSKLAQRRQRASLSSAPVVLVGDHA
Excerpt: as §1

COc1cc(C(=O)N2CCC(N3CCN(C)CC3)CC2)ccc1Nc1ncc2c(n1)N(C)c1ccccc1C(=O)N2C [15 (LRRK2-IN-1)]
KINOMEscan: ABL1(M351T)-phosphorylated (panel of 442 kinases [1]): 94
KINOMEscan: BMPR1A (panel of 442 kinases [2]): 100
KINOMEscan: MKNK2 (panel of 442 kinases [3]): 1.2

COc1cc(C(=O)N2CCC(N3CCN(C)CC3)CC2)ccc1Nc1ncc2c(n1)N1CCc3cccc(c31)C(=O)N2C [Compound 24]
KINOMEscan: ABL1(M351T)-phosphorylated (panel of 442 kinases [1]): 77
KINOMEscan: BMPR1A (panel of 442 kinases [2]): 67
KINOMEscan: MKNK2 (panel of 442 kinases [3]): 8.6

COc1cc(C(=O)N2CCC(N3CCN(C)CC3)CC2)ccc1Nc1ncc2c(n1)N(C1CCCC1)c1ccccc1C(=O)N2C [Compound 25, 11-cyclopentyl-2-((2-methoxy-4-(4-(4-methylpiperazin-1-yl)piperidine-1-carbonyl)phenyl)amino)-5-methyl-5H-benzo[e]pyrimido[5,4-b][1,4]diazepin-6(11H)-one]
KINOMEscan: ABL1(M351T)-phosphorylated (panel of 442 kinases [1]): 80
KINOMEscan: BMPR1A (panel of 442 kinases [2]): 96
KINOMEscan: MKNK2 (panel of 442 kinases [3]): 100

CCOc1cc(C(=O)N2CCC(N3CCN(C)CC3)CC2)ccc1Nc1ncc2c(n1)N(C1CCCC1)c1ccccc1C(=O)N2C [Compound 26]
KINOMEscan: ABL1(M351T)-phosphorylated (panel of 442 kinases [1]): 89
KINOMEscan: BMPR1A (panel of 442 kinases [2]): 100
KINOMEscan: MKNK2 (panel of 442 kinases [3]): 100
